Experimental data taken from US6737383B1, “Herbicidal oxadiazolidines” (priority 1999, dated 2004).

How the values were obtained:
Details in all cases: Preemergence
soybean = assay: Test B pre/postemergence soybean; assay type: in vivo, Glycine max
Description: (§1) Seeds of bedstraw (Galium aparine), blackgrass (Alopecurus myosuroides), surinam grass (Brachiaria decumbens), cocklebur (Xanthium strumarium), corn (Zea mays), crabgrass (Digitaria sanguinalis), giant foxtail (Setaria faberii), morningglory (Ipomoea hederacea), pigweed (Amaranthus retroflexus), rape (Brassica napus), soybean (Glycine max), sugar beet (Beta vulgaris), velvetleaf (Abutilon theophrasti), wheat (Triticum aestivum), wild oat (Avena fatua) and purple nutsedge (Cyperus rotundus) tubers were planted and treated preemnergence with test chemicals formulated in a non-phytotoxic solvent mixture which included a surfactant.
(§2) At the same time, these crop and weed species were also treated with postemergence applications of test chemicals formulated in the same manner. Plants ranged in height from 2 to 18 cm (1- to 4-leaf stage) for postemergence treatments. Plant species in the flood test consisted of rice (Oryza sativa), smallflower flatsedge (Cyperus difformis), duck salad (Heteranthera limosa) and bamyardgrass (Echinochloa crus-galli) grown to the 2-leaf stage for testing. Treated plants and controls were maintained in a greenhouse for twelve to sixteen days, after which all species were compared to controls and visually evaluated. Plant response ratings, summarized in Table B, are based on a scale of 0 to 10 where 0 is no effect and 10 is complete control. A dash (−) response means no test result.

purple nutsedge = assay: Test B pre/postemergence purple nutsedge; assay type: in vivo, Cyperus rotundus
Description: as §1, §2

blackgrass = assay: Test B pre/postemergence blackgrass; assay type: in vivo, Alopecurus myosuroides
Description: as §1, §2

crabgrass = assay: Test B pre/postemergence crabgrass; assay type: in vivo, Digitaria sanguinalis
Description: as §1, §2

rape = assay: Test B pre/postemergence rape; assay type: in vivo, Brassica napus
Description: as §1, §2

morningglory = assay: Test B pre/postemergence morningglory; assay type: in vivo, Ipomoea hederacea
Description: as §1, §2

wild oat = assay: Test B pre/postemergence wild oat; assay type: in vivo, Avena fatua
Description: as §1, §2

wheat = assay: Test B pre/postemergence wheat; assay type: in vivo, Triticum aestivum
Description: as §1, §2

surinam grass = assay: Test B pre/postemergence surinam grass; assay type: in vivo, Brachiaria decumbens
Description: as §1, §2

corn = assay: Test B pre/postemergence corn; assay type: in vivo, Zea mays
Description: as §1, §2

giant foxtail = assay: Test B pre/postemergence giant foxtail; assay type: in vivo, Setaria faberii
Description: as §1, §2

cocklebur = assay: Test B pre/postemergence cocklebur; assay type: in vivo, Xanthium strumarium
Description: as §1, §2

pigweed = assay: Test B pre/postemergence pigweed; assay type: in vivo, Amaranthus retroflexus
Description: as §1, §2

velvetleaf = assay: Test B pre/postemergence velvetleaf; assay type: in vivo, Abutilon theophrasti
Description: as §1, §2

bedstraw = assay: Test B pre/postemergence bedstraw; assay type: in vivo, Galium aparine
Description: as §1, §2

sugar beet = assay: Test B pre/postemergence sugar beet; assay type: in vivo, Beta vulgaris
Description: as §1, §2

[1] = Rate 62 g/ha, scale of 0 to 10 where 0 is no effect and 10 is complete control
[2] = Rate 125 g/ha, scale of 0 to 10 where 0 is no effect and 10 is complete control
[3] = Rate 250 g/ha, scale 0 (no effect) to 10 (complete control)
[4] = Rate 500 g/ha, scale 0 to 10 (0 no effect, 10 complete control)

SMILES: COCC(OC)n1c(=O)on(C(=O)N(c2ccc(Cl)cc2)C(C)C)c1=O (stereo not shown) [Compound 726]
- Soybean plant response rating (soybean; [1]): 0
- Plant response rating, Soybean (soybean; [2]): 0
- Soybean plant response rating (soybean; [3]): 0
- Soybean plant response rating (soybean; [4]): 0
- Nutsedge plant response rating (purple nutsedge; [1]): 0
- Plant response rating, Nutsedge (purple nutsedge; [2]): 0
- Nutsedge plant response rating (purple nutsedge; [3]): 0
- Nutsedge plant response rating (purple nutsedge; [4]): 0
- Blackgrass plant response rating (blackgrass; [1]): 7
- Plant response rating, Blackgrass (blackgrass; [2]): 8
- Blackgrass plant response rating (blackgrass; [3]): 8
- Blackgrass plant response rating (blackgrass; [4]): 9
- Crabgrass plant response rating (crabgrass; [1]): 9
- Plant response rating, Crabgrass (crabgrass; [2]): 9
- Crabgrass plant response rating (crabgrass; [3]): 9
- Crabgrass plant response rating (crabgrass; [4]): 10
- Rape plant response rating (rape; [1]): 0
- Plant response rating, Rape (rape; [2]): 0
- Rape plant response rating (rape; [3]): 0
- Rape plant response rating (rape; [4]): 7
- Morningglory plant response rating (morningglory; [1]): 0
- Plant response rating, Morningglory (morningglory; [2]): 0
- Morningglory plant response rating (morningglory; [3]): 1
- Morningglory plant response rating (morningglory; [4]): 1
- Wild oats plant response rating (wild oat; [1]): 1
- Plant response rating, Wild oats (wild oat; [2]): 7
- Wild oats plant response rating (wild oat; [3]): 8
- Wild oats plant response rating (wild oat; [4]): 9
- Wheat plant response rating (wheat; [1]): 0
- Plant response rating, Wheat (wheat; [2]): 0
- Wheat plant response rating (wheat; [3]): 0
- Wheat plant response rating (wheat; [4]): 0
- B. signalgrass plant response rating (surinam grass; [1]): 4
- Plant response rating, B. signalgrass (surinam grass; [2]): 7
- B. signalgrass plant response rating (surinam grass; [3]): 7
- B. signalgrass plant response rating (surinam grass; [4]): 9
- Corn plant response rating (corn; [1]): 0
- Plant response rating, Corn (corn; [2]): 0
- Corn plant response rating (corn; [3]): 0
- Corn plant response rating (corn; [4]): 2
- Giant foxtail plant response rating (giant foxtail; [1]): 9
- Plant response rating, Giant foxtail (giant foxtail; [2]): 9
- Giant foxtail plant response rating (giant foxtail; [3]): 10
- Giant foxtail plant response rating (giant foxtail; [4]): 10
- Cocklebur plant response rating (cocklebur; [1]): 0
- Plant response rating, Cocklebur (cocklebur; [2]): 0
- Cocklebur plant response rating (cocklebur; [3]): 0
- Cocklebur plant response rating (cocklebur; [4]): 0
- Redroot pigweed plant response rating (pigweed; [1]): 0
- Plant response rating, Redroot pigweed (pigweed; [2]): 4
- Redroot pigweed plant response rating (pigweed; [3]): 7
- Redroot pigweed plant response rating (pigweed; [4]): 8
- Velvetleaf plant response rating (velvetleaf; [1]): 0
- Plant response rating, Velvetleaf (velvetleaf; [2]): 0
- Velvetleaf plant response rating (velvetleaf; [3]): 0
- Velvetleaf plant response rating (velvetleaf; [4]): 0
- Bedstraw plant response rating (bedstraw; [1]): 0
- Plant response rating, Bedstraw (bedstraw; [2]): 0
- Bedstraw plant response rating (bedstraw; [3]): 0
- Bedstraw plant response rating (bedstraw; [4]): 0
- Sugarbeets plant response rating (sugar beet; [1]): 0
- Plant response rating, Sugarbeets (sugar beet; [2]): 0
- Sugarbeets plant response rating (sugar beet; [3]): 5
- Sugarbeets plant response rating (sugar beet; [4]): 5
